The test system of test [1] is IgG2a production of mouse spleen lymphocytes. Briefly: Suppressive effect on antibody production of mouse spleen lymphocytes: IgG2a. Conditions: Lymphocyte, 240 h, LPS + IL-4, 10 days. The class given is cell-based, BALB/c (nu/nu) mice. The method, then:
(§1) Experiment 6 Suppressive Effect on Antibody Production of Mouse Spleen Lymphocytes 1. Experimental Method 1) Animals
(§2) BALB/c (nu/nu) mice were bought from Japan SLC, Inc. (Shizuoka) and 7 weeks old-male mice were used.
(§3) RPMI medium (Nissui Pharmaceutical Co., Ltd.) containing 10% fetal bovine serum (HyClone Lab.) inactivated at 56° C. for 30 minutes, penicillin (100 units/ml) and streptomycin (100 μg/ml) (GIBCO) was used for experiments.
(§4) Each of the compounds was dissolved in dimethylsulfoxide (Nakaraitesk) at […] and diluted with the medium to adjust a final concentration to 0.1 μg/ml −10 μg/ml.
4) Mouse Spleen Lymphocytes […]
(§5) In 96-well cultivating plate (Sumitomo Bakelite Company Limited) mouse spleen lymphocytes were inoculated 2×10^5 cells per well. […] After the cultivation for 10 days, the amount of the antibody in a supernatant was quantified by ELISA method.
7) Quantification of the IgG1, IgG2a and IgM Antibodies
In 96-well plate 50 μl of 10 μg/ml Goat Anti-Mouse Ig (IgM+G+A, H+ L) (Southern Biotechnology, Birmingham) was added and the plate was coated at 4° C. overnight. […] After washing three times with PBST, 100 μl of culture supernatant which was diluted with PBS or 100 μl of an antibody standard solution (Mouse IgG1 standard, Mouse IgG2a standard, Mouse IgM standard, BETHYL Laboratories) of a pre-determined concentration was added and incubated for 1 hour. […]

Test [2] relates to anti-OVA IgE antibody titer (PCA titer). As to the kind of experiment: Suppressive effect on the IgE production against ovalbumin (OVA), PCA titer. In kind it is in vivo, BALB/c mice. The settings on record: 40 mg/kg orally for 10 days; untreated group 9-12. The method, then: Experiment 4 Suppressive Effect on the IgE Production Against Ovalbumin (OVA)
BALB/c mice (female, 8-10 weeks old) and Wistar rats (female, 8-10 weeks old) which were bought from Japan SLC, Inc. (Shizuoka) were used.
BALB/c mice were immunized by an intraperitoneal administration of 0.2 ml suspension of 2 μg of ovalbumin (OVA) and 2 mg of aluminium hydroxide gel in physiological saline. After 10 days, blood was drawn from hearts, sera were separated and stocked at −40° C. till the measurement of an IgE antibody titer.
After the compound of the present invention was dissolved or suspended in N, N-dimethylacetoamide, the mixture was diluted 20 times with miglyol 812 neutral oil. The obtained solution was orally administered to mice at 0.1 ml per mouse. The administration was continued for 10 days from the immunizing day to the day before drawing blood. IPD-1151-T (a compound described in Jpn. Pharmacol. (1993) 61, 31–39) and a compound No. 36 (a compound 36 described in J. Med. Chem. (1997) 40: 395–407) were examined as controls by the same method.
4) Measurement of Anti-OVA IgE Antibody Titer (PCA Titer)
The samples 2-fold diluted with physiological saline were prepared from the obtained mouse serum and each 50 μl of the solution was intradermally injected to backs of Wistar rats which previously hair cut. After 24 hours, a passive cutaneous anaphylaxis reaction (PCA) was induced by an intravenous injection of 0.5 ml of physiological saline containing 1 mg of OVA and 5 mg of Evans' blue dye. After 30 minutes, the rats were sacrified and the highest dilution rate of the serum giving bluing with a diameter of more than 5 mm was recorded as the PCA titer. For example, when a serum is positive for the PCA reaction till […], the anti-OVA IgE antibody titer of the mouse is defined as 7.

Test [3] concerns IgE production of mouse spleen lymphocytes (lipopolysaccharide, IL-4). Briefly: Suppressive effect on antibody production of mouse spleen lymphocytes: IgE. The class given is cell-based, BALB/c (nu/nu) mice. The settings on record: Lymphocyte, 240 h, LPS + IL-4, 10 days. The method, then:
as §1, §2, §3, §4
4) Mouse Spleen Lymphocytes
A spleen of mouse was taken out and put in a cultivating schale which was filled with Hanks' solution. The spleen was crushed and the cells were pushed out from the organ and filtered through a metal mesh (200 mesh). After the collected cell suspension was washed by centrifugation with sterile Hanks' solution (Nissui Pharmaceutical Co., Ltd.), sterile distilled water was added. […]
as §5
6) Quantification of the IgE Antibody
A commercial mouse IgE EIA kit (Yamasa Shoyu Co., Ltd.) was used for the quantification of the IgE. […]

The text below walks through data of patent US7101915B1, “P-terphenyl compounds” (Shionogi & Co., Ltd., priority 1996, dated 2006).

Marks after values point to notes of the source that are not given here.

As a reminder, the IC50 is the concentration that gives 50% inhibition.

For the compound `Cc1cc(-c2ccc(OCC=C(Cl)Cl)c(F)c2)c(C)cc1-c1ccc(O)cc1` [Compound I-963], the values for the IC50 in test [1] and in test [3] were 3.6 µg/mL and 0.00026 ng/mL, respectively. For the same compound, the “PCA Titer” value in test [2] is on record as 3.6**.
